From a melting point compilation (Tetko et al.; mined from patent text by program, amines drawn as free bases though some values may be those of a salt)

Compound | melting point
CCOC(=O)c1c(C)nn(-c2ccccc2N)c1C | 59 to 61 °C
O=C(Nc1ccc(-n2nc(C3CCCO3)cc2C(F)(F)F)cc1)c1ccncc1F (centres undefined) | 116 to 118 °C
Cn1cccc1C(=O)NN(C(=O)c1ccccc1)C(C)(C)C | 182 to 185 °C
Cl[Si](Cl)(Cl)Cc1ccc(-c2ccccc2)cc1 | 60 to 65 °C
CCCCCCCCCCCCCCCCCC(=O)Nc1cccc(N(CC(=O)O)CC(=O)O)c1 | 135 to 140 °C
CC(C)(CNc1ccnc2cc(Cl)ccc12)NCc1ccncc1 | 157 to 159 °C
COC(=O)c1ccc(CNC(=O)OCc2ccccc2)cc1OCc1ccccc1 | 106 to 107 °C
CC(C)c1cccc(C(C)C)c1NC(=O)CN1CCN(CCSc2nc3ccccc3o2)CC1 | 161 to 163 °C
CN1C(=S)N(c2ccc(Cl)c(Cl)c2)C(=N)C1(C)C | 133 °C
CO/C=C(/C(=O)OC)c1ccccc1/C=C(\Cl)OC(=O)C1=C(c2ccccc2)S(=O)(=O)C(c2ccccc2)C1=O (centres undefined) | 68 to 72 °C
Cn1nc2c(N)nc3ncccc3c2c1CC(C)(C)C | 323 to 326 °C
CCC(NC(=NC#N)Nc1ccc(N)nc1)c1ccccc1 (centres undefined) | 178 °C
COc1ccc(C2CCc3ccccc3C2O)cc1 (centres undefined) | 89 to 90.5 °C
O=C1NCCc2sc3ccccc3c21 | 143 to 144 °C
Cc1[nH]c(-c2ccccc2)nc1CO | 197 to 199 °C
CCOC(=O)c1ccc(OCC2=CCN(c3ccc(Cl)nn3)CC2)cc1 | 162 °C
Cc1nc(C)c(Cl)c(NCc2nccc(SCCCCN3CCNCC3)c2C)n1 | 143 to 145 °C
C[C@H]1CN(c2c(F)cc3c(=O)c(C(=O)O)cn4c3c2CCN4C)C[C@H]1NC(=O)CNC(=O)OC(C)(C)C (relative stereo) | 142 to 145 °C
COc1ccc([N+](=O)[O-])c(Nc2ccccc2O)n1 | 206 to 207 °C
CC(=O)N1CCN(c2c(Cl)cncc2Cl)CC1 | 144 to 146 °C
CS(=O)(=O)c1ccc(-c2cc(C(=O)CCCCCO)nn2C2CCCCC2)cc1 | 125 to 127 °C
Cc1cc(-c2cc(C(F)(F)F)nn2-c2ccc(S(C)(=O)=O)cc2)ccc1-c1cscn1 | 140 to 142 °C
O=C1N(CC2CCCO2)c2ccc(F)cc2C12COc1cc3c(cc12)CCO3 (centres undefined) | 167 to 169 °C
Cc1c(-c2ccncc2)[nH]c(-c2ccncc2)c1C(C)O (centres undefined) | 250 to 252 °C
CCC(CC(Cc1cccc2ccccc12)C(=O)N[C@@H](Cc1c[nH]cn1)C(=O)N[C@H](C=NNC(N)=O)CC(C)C)c1ccccc1 (some centres undefined) | 105 to 109 °C
Cc1nc2c(OCc3c(Cl)ccc(N(C)C(=O)Oc4ccc([N+](=O)[O-])cc4)c3Cl)cccn2c1Br | 229 to 230 °C
COc1cccc2sc(-c3ccc(C(=O)O)cc3)nc12 | 289 to 291 °C
CCCOCCOC(=O)C1=C(C)NC(C)=C(/C=C/S(=O)(=O)NC(C)C)C1c1cccc([N+](=O)[O-])c1 (centres undefined) | 152 to 154 °C
Cc1ccnc(Nc2nc(-c3ccc4c(c3)OCCO4)cs2)c1 | 230 to 240 °C
